# Key:
# [1] = biological target: KRas G12D/Q61H double mutant (Homo sapiens (Human), UniProt P01116, G12D/Q61H); test: Ras GTP binding domain inhibition assay (labeled GTP); details: at 20 μM; read-out: KRas G12D Q61H % Inh.
# How it was run: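 Fluorescence read-out of Cy3-/Cy5-GTP remaining bound to nickel-immobilized His-KRas after washes. Protein was coated overnight at 4° C, then exposed to compound for 3 h at room temperature before a 45 min labeled-GTP incubation.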
# Rac-1 = Rac-1 (Homo sapiens (Human), UniProt P63000); test: Rac inhibition assay (labeled GTP); assay type: binding; details: read-out: Rac-1 % Inh.
# Rho-A = Rho-A (Homo sapiens (Human), UniProt P61586); test: Rho inhibition assay (labeled GTP); assay type: binding; details: read-out: Rho-A % Inh.
# Chain of Rho-A (P61586 whole entry): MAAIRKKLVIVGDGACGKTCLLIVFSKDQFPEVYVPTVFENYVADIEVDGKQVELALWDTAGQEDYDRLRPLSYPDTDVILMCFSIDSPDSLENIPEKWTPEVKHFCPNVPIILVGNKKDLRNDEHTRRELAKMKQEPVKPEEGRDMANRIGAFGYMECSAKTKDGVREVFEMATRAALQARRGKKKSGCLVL
# Chain of KRas G12D/Q61H double mutant (P01116-2 other isoform, or with tags, fused parts or gaps G12D/Q61H): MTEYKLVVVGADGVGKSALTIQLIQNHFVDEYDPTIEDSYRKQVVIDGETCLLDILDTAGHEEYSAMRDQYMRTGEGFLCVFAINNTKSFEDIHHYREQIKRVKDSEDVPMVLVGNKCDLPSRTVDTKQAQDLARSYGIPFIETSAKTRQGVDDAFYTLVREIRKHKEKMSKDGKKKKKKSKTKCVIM
SMILES,inhibition at 20 µM [1] [%],inhibition at 20 µM (Rac-1) [%],inhibition at 20 µM (Rho-A) [%]
O=C(c1csc2c(O)nc(-c3ccccn3)nc12)N1CCN(Cc2ccccc2)CC1 [drawing 3651],25 to 50,51 to 75,76 to 100
O=C(NCCc1cnc(O)nc1)c1csc2nc(-c3ccccn3)nc(N3CCS(=O)(=O)CC3)c12 [drawing 3726],25 to 50,51 to 75,51 to 75
COc1cc(CCN(C)C(=O)c2csc3nc(-c4ccccn4)nc(N4CCOCC4)c23)ccn1 [drawing 3670],0,76 to 100,51 to 75
O=C(c1csc2c(O)nc(-c3ccccn3)nc12)N1CCNC(c2ccccc2Cl)C1 (stereo not drawn) [drawing 3695],25 to 50,76 to 100,76 to 100
O=C(c1csc2c(O)nc(-c3ccccn3)nc12)N1CCN(c2cccc(F)c2)CC1 [drawing 3642],25 to 50,76 to 100,76 to 100
COc1ccc(N2CCN(C(=O)c3csc4c(O)nc(-c5ccccn5)nc34)CC2)cc1O [drawing 3691],1 to 25,76 to 100,76 to 100
O=C(c1csc2c(O)nc(-c3ccccn3)nc12)N1CCOC(CN2CCOCC2)C1 (stereo not drawn) [drawing 3694],1 to 25,76 to 100,51 to 75
COCCCCNC(=O)c1csc2nc(-c3ccccn3)nc(N(CCOC)CCOC)c12 [drawing 3682],0,76 to 100,51 to 75
O=C(c1csc2c(O)nc(-c3ccccn3)nc12)N1CCN(Cc2ccc(O)cc2)CC1 [drawing 3653],1 to 25,51 to 75,25 to 50
O=C(c1csc2c(O)nc(-c3ccccn3)nc12)N1CCNC(Cc2cccc(F)c2)C1 (stereo not drawn) [drawing 3704],51 to 75,51 to 75,51 to 75
O=C(c1csc2c(O)nc(-c3ccccn3)nc12)N1CCNC(c2ccccc2F)C1 (stereo not drawn) [drawing 3665],25 to 50,76 to 100,76 to 100
N#Cc1cccc(CCNC(=O)c2csc3nc(-c4ccccn4)nc(N4CCOCC4)c23)c1 [drawing 3676],1 to 25,51 to 75,51 to 75
CC(C(=O)Nc1nc(-c2ccccn2)nc2sccc12)c1ccc(C#N)cc1 (stereo not drawn) [drawing 3687],1 to 25,76 to 100,76 to 100
COCCCCNC(=O)c1csc2nc(-c3ccccn3)nc(N3CCS(=O)(=O)CC3)c12 [drawing 3698],1 to 25,1 to 25,1 to 25
O=C(NCCc1ccncc1)c1csc2nc(-c3ccccn3)nc(N3CCOCC3)c12 [drawing 3668],0,76 to 100,51 to 75
COc1ccccc1C1CN(C(=O)c2csc3c(O)nc(-c4ccccn4)nc23)CCO1 (stereo not drawn) [drawing 3656],51 to 75,76 to 100,76 to 100
Oc1nc(-c2ccccn2)nc2c3c(sc12)CNC3 [drawing 3796],51 to 75,76 to 100,76 to 100
Cc1cnc(-c2ccccn2)nc1NC(=O)C(C)c1ccc(C#N)cc1 (stereo not drawn) [drawing 3686],1 to 25,76 to 100,51 to 75
Nc1nc(-c2ccccn2)nc2c(-c3ccccc3Cl)csc12 [drawing 3707],1 to 25,25 to 50,25 to 50
O=C(NCCc1nnn[nH]1)c1csc2nc(-c3ccccn3)nc(N3CCOCC3)c12 [drawing 3675],1 to 25,76 to 100,51 to 75
N#Cc1ccc2c(c1)CCCC2C(=O)Nc1ccnc(-c2ccccn2)n1 (stereo not drawn) [drawing 3727],51 to 75,51 to 75,51 to 75
CC(C)(C)c1ccc(-c2csc3c(O)nc(-c4ccccn4)nc23)cc1 [drawing 3719],51 to 75,51 to 75,51 to 75
CC(C)(C(=O)Nc1ccnc(-c2ccccn2)n1)c1ccc(C#N)cc1 [drawing 3640],1 to 25,51 to 75,25 to 50

# Further lines, results first:
inhibition at 20 µM [1] [%],inhibition at 20 µM (Rac-1) [%],inhibition at 20 µM (Rho-A) [%],SMILES
1 to 25,25 to 50,25 to 50,COc1nccc(CCNC(=O)c2csc3nc(-c4ccccn4)nc(N4CCOCC4)c23)n1 [drawing 3769]
25 to 50,51 to 75,51 to 75,Oc1nc(-c2ccccn2)nc2c(-c3ccc(OC4CCOCC4)cc3)csc12 [drawing 3739]
25 to 50,25 to 50,51 to 75,COc1cnc(CNC(=O)c2csc3nc(-c4ccccn4)nc(N)c23)[nH]c1=O [drawing 3835]
25 to 50,51 to 75,51 to 75,Oc1nc(-c2ccccn2)nc2c(-c3ccc(OC4CCCCC4)cc3)csc12 [drawing 3759]
0,76 to 100,51 to 75,Oc1nc(-c2ccccn2)nc2c(-c3ccccc3)c(-c3ccncc3)sc12 [drawing 3866]
1 to 25,1 to 25,0,Oc1nc(-c2ccccn2)nc2c(-c3cncc(C(F)F)c3)csc12 [drawing 3826]
25 to 50,51 to 75,25 to 50,COc1cc(C)c(-c2csc3c(O)nc(-c4ccccn4)nc23)cc1C [drawing 3741]
1 to 25,25 to 50,25 to 50,Cn1cnc(-c2nc(O)c3c(-c4ccccc4)c(-c4ccc(CNC(=O)OC(C)(C)C)cc4)sc3n2)c1 [drawing 3855]
51 to 75,76 to 100,76 to 100,COC(=O)c1c(C)sc2c(O)nc(-c3ccccn3)nc12 [drawing 3792]
0,1 to 25,0,Nc1nc(O)c2sc(-c3cccc(C(=O)NCc4cccc(O)n4)c3)cc2n1 [drawing 3864]
25 to 50,51 to 75,51 to 75,COc1cnc(CNC(=O)c2cc3nc(-c4ccccn4)nc(O)c3s2)[nH]c1=O [drawing 3839]
1 to 25,0,1 to 25,Oc1nc(-c2ccccn2)nc2cc(-c3ccc(-c4ccccc4)cc3)sc12 [drawing 3877]
51 to 75,51 to 75,76 to 100,COC(=O)c1cc2nc(-c3ccccn3)nc(O)c2s1 [drawing 3779]
25 to 50,51 to 75,25 to 50,Nc1nc(-c2ccccn2)nc(C(=O)NCCc2ccncc2)c1Oc1ccccc1 [drawing 3869]
25 to 50,51 to 75,25 to 50,Cc1cncc(-c2csc3c(O)nc(-c4ccccn4)nc23)c1 [drawing 3785]
51 to 75,76 to 100,76 to 100,Cc1c(-c2csc3c(O)nc(-c4ccccn4)nc23)cnn1C [drawing 3824]
1 to 25,1 to 25,1 to 25,N#Cc1cccc(-c2csc3c(O)nc(-c4ccccn4)nc23)c1 [drawing 3822]
51 to 75,51 to 75,51 to 75,Oc1nc(-c2ccccn2)nc2c(-c3ccccc3OC3CCCCC3)csc12 [drawing 3738]
51 to 75,51 to 75,51 to 75,Oc1nc(-c2ccccn2)nc2c(-c3ccc(C4CCC4)cc3)csc12 [drawing 3737]
1 to 25,1 to 25,1 to 25,COc1nc(-c2ccccn2)nc2c(C3CCCCC3)csc12 [drawing 3798]
25 to 50,1 to 25,25 to 50,Oc1nc(-c2ccccn2)nc2cc(-c3cccc(Br)c3)sc12 [drawing 3882]
1 to 25,1 to 25,1 to 25,Oc1nc(-c2ccccn2)nc2c(-c3cncnc3)csc12 [drawing 3823]
51 to 75,76 to 100,76 to 100,COC(=O)c1nc(-c2ccccn2)nc(O)c1O [drawing 3865]
1 to 25,0,1 to 25,COc1cnc(CNC(=O)c2sc3c(O)nc(-c4ccccn4)nc3c2C)[nH]c1=O [drawing 3842]
25 to 50,76 to 100,76 to 100,Cc1sc2c(O)nc(-c3ccccn3)nc2c1C(=O)N1CCN(c2ccccc2)CC1 [drawing 3827]
1 to 25,1 to 25,1 to 25,Nc1nc(O)c2sc(-c3cccc(C(=O)N4CCC(O)C4)c3)cc2n1 (stereo not drawn) [drawing 3861]
25 to 50,25 to 50,25 to 50,Cc1sc2c(N)nc(-c3ccccn3)nc2c1Br [drawing 3765]
0,0,1 to 25,COc1cnc(C2CCCN2)nc1O (stereo not drawn) [drawing 3788]
1 to 25,51 to 75,51 to 75,O=C(NCCc1ccnc(O)n1)c1csc2nc(-c3ccccn3)nc(N3CCOCC3)c12 [drawing 3770]
